From PMC7565698, “Catabolic Reductive Dehalogenase Substrate Complex Structures Underpin Rational Repurposing of Substrate Scope” (Microorganisms, 2020)

Tests used:
[1] = molecular target: T1, NpRdhA (Nitratireductor pacificus, UniProt K2MB66, A419M); assay: HPLC of dehalogenation products; format: biochemical; settings: NADPH, spinach ferredoxin, E. coli flavodoxin reductase, 30 °C, anaerobic; C-terminal His tag
T1 construct: gene NA2_14372; full-length, N-terminal His6 tag (NpRdhA^N; crystals) or C-terminal His6 tag (NpRdhA^C; A419M); expressed in Bacillus megaterium; holds cobalamin and two [4Fe-4S] clusters
T1 sequence (K2MB66 entry or part of it A419M): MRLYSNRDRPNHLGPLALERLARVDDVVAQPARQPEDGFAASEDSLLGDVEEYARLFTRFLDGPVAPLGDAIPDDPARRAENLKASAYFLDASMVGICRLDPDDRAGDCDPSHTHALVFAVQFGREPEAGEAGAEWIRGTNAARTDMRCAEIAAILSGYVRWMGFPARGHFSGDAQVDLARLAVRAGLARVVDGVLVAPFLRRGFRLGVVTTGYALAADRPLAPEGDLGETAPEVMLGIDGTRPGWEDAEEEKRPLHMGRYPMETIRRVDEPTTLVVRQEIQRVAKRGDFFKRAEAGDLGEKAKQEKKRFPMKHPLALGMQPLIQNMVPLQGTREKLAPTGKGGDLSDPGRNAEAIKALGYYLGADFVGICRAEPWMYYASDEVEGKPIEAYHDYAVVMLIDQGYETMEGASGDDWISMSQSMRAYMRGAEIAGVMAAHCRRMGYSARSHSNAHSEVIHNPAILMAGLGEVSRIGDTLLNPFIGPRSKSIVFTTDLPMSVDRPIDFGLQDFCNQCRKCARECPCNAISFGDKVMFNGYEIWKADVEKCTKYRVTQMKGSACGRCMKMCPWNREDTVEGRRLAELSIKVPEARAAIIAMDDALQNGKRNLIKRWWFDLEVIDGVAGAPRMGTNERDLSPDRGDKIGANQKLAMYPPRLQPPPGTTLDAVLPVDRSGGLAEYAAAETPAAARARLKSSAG

[2] = molecular target: T2, NpRdhA (Nitratireductor pacificus, UniProt K2MB66); assay: X-ray crystal structure, soaked crystals ([…] Å); format: binding; settings: N-terminal His tag, 100 mM soak
T2 construct: gene NA2_14372; full-length, N-terminal His6 tag (NpRdhA^N; crystals) or C-terminal His6 tag (NpRdhA^C; A419M); expressed in Bacillus megaterium; holds cobalamin and two [4Fe-4S] clusters
T2 sequence (K2MB66 entry or part of it): as the sequence (K2MB66 entry or part of it A419M) above, with M419A counted along it

[3] = molecular target: T2, NpRdhA; assay: X-band continuous wave EPR of cob(II)alamin; format: binding; settings: 20 mM ligand, 100 uM protein, 30 K

| SMILES | HPLC of dehalogenation products [1] | X-ray crystal structure, soaked crystals (1.99 Å) ([2]; active site above cobalamin, Br at Co beta-axial position, partial photoreduction to 3-bromo-4-hydroxybenzoic acid) | X-band continuous wave EPR of cob(II)alamin [3] | X-ray crystal structure, soaked crystals (1.99 Å) ([2]; three conformations, one with Br ligating Co, one at the active site entrance) |
| --- | --- | --- | --- | --- |
| O=C(O)c1cc(Br)c(O)c(Br)c1 [35-DB-4-OH, 3,5-dibromo-4-hydroxybenzoic acid] | revealed the ability to dehalogenate 35-DB-4-OH, 3-B-4-OH, 35-DC-4-OH and 3-C-4-OH | 35-DB-4-OH is located above the cobalamin | – | – |
| O=C(O)c1cc(Cl)c(O)c(Cl)c1 [35-DC-4-OH, 3,5-dichloro-4-hydroxybenzoic acid] | – | – | a distinct change in both g and hyperfine coupling values on substrate binding | – |
| O=C(O)c1ccc(O)c(Br)c1 [3-B-4-OH, 3-bromo-4-hydroxybenzoic acid] | revealed the ability to dehalogenate 35-DB-4-OH, 3-B-4-OH, 35-DC-4-OH and 3-C-4-OH | – | – | structure of the NpRdhA^N protein in complex with 3-B-4-OH obtained through soaking |
